Measured values as given in the supplement of paper PMC10132981, “Formate overflow drives toxic folate trapping in MTHFD1 inhibited cancer cells” (Nature Metabolism, 2023).

Columns and labels:
HCT116 = assay: cell viability relative to lowest-dose well (resazurin, 96 h); higher = more viable; conditions: RPMI + 10% FBS
Method in brief: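 In 384-well plates, 50 µl RPMI with 10% FBS plus a metabolite supplement received 500 HCT116 or 1,000 SW620 cells per well. Dilution series of compounds, taken from 10 mM DMSO stocks, were added and the plates kept 96 h at 37 °C, 5% CO2. Viability, reported as percent of the lowest-dose well across independent replicate cultures, was measured as resazurin-to-resorufin conversion by fluorescence at 595 nm.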

PA-TU-8988T = assay: EC50 for viability (resazurin, 96 h); conditions: DMEM+GlutaMAX (5% dFBS, 1% P/S)
SW620 = assay: cell viability relative to vehicle (resazurin, 96 h); higher = more viable
Description: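 SW620 WT or MTHFD2-/- cells were treated for 96 h with a compound dilution series (log10 M) in RPMI with normal or dialysed FBS. Viability was read by resazurin and is given as % of vehicle.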

CN(Cc1cnc2nc(N)nc(N)c2n1)c1ccc(C(=O)N[C@@H](CCC(=O)O)C(=O)O)cc1 [methotrexate]
Conditions | cell viability [%]
HCT116, 0.001 µM, metabolite supplement: 50uM thymidine | 96.3
HCT116, 0.001 µM, metabolite supplement: 50uM thymidine + 250uM hypoxanthine | 98.1
HCT116, 0.001 µM, metabolite supplement: 250uM hypoxanthine | 97.7
HCT116, 0.001 µM, metabolite supplement: vehicle | 99.2
HCT116, 0.00278 µM, metabolite supplement: 50uM thymidine | 96.8
HCT116, 0.00278 µM, metabolite supplement: 50uM thymidine + 250uM hypoxanthine | 101
HCT116, 0.00278 µM, metabolite supplement: 250uM hypoxanthine | 97.5
HCT116, 0.00278 µM, metabolite supplement: vehicle | 96.37
HCT116, 0.00774 µM, metabolite supplement: 50uM thymidine | 91.8
HCT116, 0.00774 µM, metabolite supplement: 50uM thymidine + 250uM hypoxanthine | 101
HCT116, 0.00774 µM, metabolite supplement: 250uM hypoxanthine | 99.5
HCT116, 0.00774 µM, metabolite supplement: vehicle | 66
HCT116, 0.0215 µM, metabolite supplement: 50uM thymidine | 36.4
HCT116, 0.0215 µM, metabolite supplement: 50uM thymidine + 250uM hypoxanthine | 104
HCT116, 0.0215 µM, metabolite supplement: 250uM hypoxanthine | 43.6
HCT116, 0.0215 µM, metabolite supplement: vehicle | 31.4
HCT116, 0.0599 µM, metabolite supplement: 50uM thymidine | 31.6
HCT116, 0.0599 µM, metabolite supplement: 50uM thymidine + 250uM hypoxanthine | 107
HCT116, 0.0599 µM, metabolite supplement: 250uM hypoxanthine | 18.9
HCT116, 0.0599 µM, metabolite supplement: vehicle | 19.1
HCT116, 0.167 µM, metabolite supplement: 50uM thymidine | 31.9
HCT116, 0.167 µM, metabolite supplement: 50uM thymidine + 250uM hypoxanthine | 109
HCT116, 0.167 µM, metabolite supplement: 250uM hypoxanthine | 16.9
HCT116, 0.167 µM, metabolite supplement: vehicle | 17.6
HCT116, 0.464 µM, metabolite supplement: 50uM thymidine | 31.5
HCT116, 0.464 µM, metabolite supplement: 50uM thymidine + 250uM hypoxanthine | 107
HCT116, 0.464 µM, metabolite supplement: 250uM hypoxanthine | 16.7
HCT116, 0.464 µM, metabolite supplement: vehicle | 16.8
HCT116, 1.29 µM, metabolite supplement: 50uM thymidine | 31.6
HCT116, 1.29 µM, metabolite supplement: 50uM thymidine + 250uM hypoxanthine | 106
HCT116, 1.29 µM, metabolite supplement: 250uM hypoxanthine | 16.5
HCT116, 1.29 µM, metabolite supplement: vehicle | 16.4
HCT116, 3.59 µM, metabolite supplement: 50uM thymidine | 31.3
HCT116, 3.59 µM, metabolite supplement: 50uM thymidine + 250uM hypoxanthine | 105
HCT116, 3.59 µM, metabolite supplement: 250uM hypoxanthine | 16
HCT116, 3.59 µM, metabolite supplement: vehicle | 16.2
HCT116, 10 µM, metabolite supplement: 50uM thymidine | 31.5
HCT116, 10 µM, metabolite supplement: 50uM thymidine + 250uM hypoxanthine | 98.1
HCT116, 10 µM, metabolite supplement: 250uM hypoxanthine | 15.3
HCT116, 10 µM, metabolite supplement: vehicle | 16.4
SW620, log10 compound concentration (M): -5, supplement / serum: Hypoxanthine + AICAr 10μM, base medium: RPMI + dialysed FBS | 5.12
SW620, log10 compound concentration (M): -5, supplement / serum: Hypoxanthine + AICAr 30μM, base medium: RPMI + dialysed FBS | 4.87
SW620, log10 compound concentration (M): -5, supplement / serum: Hypoxanthine + AICAr 50μM, base medium: RPMI + dialysed FBS | 5.34
SW620, log10 compound concentration (M): -5, supplement / serum: Hypoxanthine + AICAr 100μM, base medium: RPMI + dialysed FBS | 5.12
SW620, log10 compound concentration (M): -5, supplement / serum: Hypoxanthine, base medium: RPMI + dialysed FBS | 4.67
SW620, log10 compound concentration (M): -5, supplement / serum: RPMI + Dialyzed FBS + 50μM Hypoxanthine, base medium: RPMI-1640 | 6.47
SW620, log10 compound concentration (M): -5, supplement / serum: RPMI + Dialyzed FBS, base medium: RPMI-1640 | 5.07
SW620, log10 compound concentration (M): -5, supplement / serum: RPMI + Normal FBS, base medium: RPMI-1640 | 19.1
SW620, log10 compound concentration (M): -5, supplement / serum: Vehicle, base medium: RPMI + dialysed FBS | 4.01
SW620, log10 compound concentration (M): -5.47712, supplement / serum: Hypoxanthine + AICAr 10μM, base medium: RPMI + dialysed FBS | 5.68
SW620, log10 compound concentration (M): -5.47712, supplement / serum: Hypoxanthine + AICAr 30μM, base medium: RPMI + dialysed FBS | 4.86
SW620, log10 compound concentration (M): -5.47712, supplement / serum: Hypoxanthine + AICAr 50μM, base medium: RPMI + dialysed FBS | 6.17
SW620, log10 compound concentration (M): -5.47712, supplement / serum: Hypoxanthine + AICAr 100μM, base medium: RPMI + dialysed FBS | 5.44
SW620, log10 compound concentration (M): -5.47712, supplement / serum: Hypoxanthine, base medium: RPMI + dialysed FBS | 5.19
SW620, log10 compound concentration (M): -5.47712, supplement / serum: RPMI + Dialyzed FBS + 50μM Hypoxanthine, base medium: RPMI-1640 | 7.16
SW620, log10 compound concentration (M): -5.47712, supplement / serum: RPMI + Dialyzed FBS, base medium: RPMI-1640 | 5.32
SW620, log10 compound concentration (M): -5.47712, supplement / serum: RPMI + Normal FBS, base medium: RPMI-1640 | 22.3
SW620, log10 compound concentration (M): -5.47712, supplement / serum: Vehicle, base medium: RPMI + dialysed FBS | 3.96
SW620, log10 compound concentration (M): -5.95424, supplement / serum: Hypoxanthine + AICAr 10μM, base medium: RPMI + dialysed FBS | 6.05
SW620, log10 compound concentration (M): -5.95424, supplement / serum: Hypoxanthine + AICAr 30μM, base medium: RPMI + dialysed FBS | 4.88
SW620, log10 compound concentration (M): -5.95424, supplement / serum: Hypoxanthine + AICAr 50μM, base medium: RPMI + dialysed FBS | 6.61
SW620, log10 compound concentration (M): -5.95424, supplement / serum: Hypoxanthine + AICAr 100μM, base medium: RPMI + dialysed FBS | 6.46
SW620, log10 compound concentration (M): -5.95424, supplement / serum: Hypoxanthine, base medium: RPMI + dialysed FBS | 4.87
SW620, log10 compound concentration (M): -5.95424, supplement / serum: RPMI + Dialyzed FBS + 50μM Hypoxanthine, base medium: RPMI-1640 | 7.47
SW620, log10 compound concentration (M): -5.95424, supplement / serum: RPMI + Dialyzed FBS, base medium: RPMI-1640 | 5.35
SW620, log10 compound concentration (M): -5.95424, supplement / serum: RPMI + Normal FBS, base medium: RPMI-1640 | 14.7
SW620, log10 compound concentration (M): -5.95424, supplement / serum: Vehicle, base medium: RPMI + dialysed FBS | 4.17
SW620, log10 compound concentration (M): -6.43136, supplement / serum: Hypoxanthine + AICAr 10μM, base medium: RPMI + dialysed FBS | 6.29

PA-TU-8988T
Conditions | EC50 for viability [µM]
metabolite supplement: Hypoxanthine | 0.237
metabolite supplement: Sodium Formate | 0.0855
metabolite supplement: Thymidine | 0.05
